Molecular target: T1, IRAK4 (Homo sapiens, UniProt Q9NWZ3)
T1 sequence (Q9NWZ3 1-460): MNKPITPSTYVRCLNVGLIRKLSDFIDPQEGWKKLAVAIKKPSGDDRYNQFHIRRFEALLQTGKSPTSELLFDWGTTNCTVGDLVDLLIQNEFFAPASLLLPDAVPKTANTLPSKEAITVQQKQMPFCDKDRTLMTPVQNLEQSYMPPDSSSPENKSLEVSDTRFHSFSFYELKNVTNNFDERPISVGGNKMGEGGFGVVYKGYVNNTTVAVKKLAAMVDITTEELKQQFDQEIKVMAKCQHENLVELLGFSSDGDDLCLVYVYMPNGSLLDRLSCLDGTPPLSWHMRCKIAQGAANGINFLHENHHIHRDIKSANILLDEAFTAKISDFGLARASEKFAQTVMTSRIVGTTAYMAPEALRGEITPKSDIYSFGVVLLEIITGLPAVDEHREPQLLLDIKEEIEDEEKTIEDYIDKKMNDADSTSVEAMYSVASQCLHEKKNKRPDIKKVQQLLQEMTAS
Assay: OCI-LY-10 degradation assay (western blot, % IRAK4 degraded after 4 hours)
Assay type: cell-based
Parameters: endogenous in cells; host or cells: OCI-LY10
Details: OCI-LY10 cells; for OCI-LY10 % IRAK4 Degradation: IRAK4 degraded after 4 hours, western blot; for OCI-LY10 % IRAK4 Degradation (0.01 uM) / OCI-LY10 % IRAK4 Degradation (0.1 uM) / OCI-LY10 % IRAK4 Degradation (1 uM): 4 hours; for OCI-LY10 % IRAK4 Degradation (0.01 uM): 0.01 uM compound; for OCI-LY10 % IRAK4 Degradation (0.1 uM): 0.1 uM compound; for OCI-LY10 % IRAK4 Degradation (1 uM): 1 uM compound
Summary of the method: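 IRAK4 loss after 4 h at 37° C was scored A (>50%), B (>20-50%) or C (<20%) from infrared western blots of RIPA lysates, 20-25 μg protein per lane. Compound was applied at 0.003-10 μM final to OCI-LY10 cells cultured in RPMI-1640 with 20% FBS and 55 μM 2-ME.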

Row | Structure (SMILES) | OCI-LY10 % IRAK4 Degradation | OCI-LY10 % IRAK4 Degradation (0.01 uM) | OCI-LY10 % IRAK4 Degradation (0.1 uM) | OCI-LY10 % IRAK4 Degradation (1 uM)
1 | N#Cc1cnc2c(cnn2-c2cc(NC3CC3)c(-c3cn(CCOCCOCCOCCNc4cccc5c4C(=O)N(C4CCC(=O)NC4=O)C5=O)nn3)cn2)c1 (stereo not shown) [I-175, 1-[4-(cyclopropylamino)-5-[1-[2-[2-[2-[2-[[2-(2,6-dioxo-3-piperidyl)-1,3-dioxo-isoindolin-4-yl]amino]ethoxy]ethoxy]ethoxy]ethyl]triazol-4-yl]-2-pyridyl]pyrazolo[3,4-b]pyridine-5-carbonitrile] | C (<20% degradation) | – | – | –
2 | Cn1c(=O)n(C2CCC(=O)NC2=O)c2cccc(CCCOCCOCCNC(=O)c3ccc(-n4cc(NC(=O)c5coc(-c6ccnc(NCC(F)(F)F)c6)n5)c(C(N)=O)n4)cc3)c21 (stereo not shown) [I-249] | – | C (<20% degradation) | A (>50% degradation) | A (>50% degradation)
3 | NC(=O)c1nn(-c2ccc(C(=O)NCCOCCOCCNc3cccc4c3C(=O)N(C3CCC(=O)NC3=O)C4=O)cc2)cc1NC(=O)c1coc(-c2ccnc(NCC3CC3)c2)n1 (stereo not shown) [I-138] | A (>50% degradation) | – | – | –
4 | NC(=O)c1nn(-c2ccc(CNCCCc3cccc4c3C(=O)N(C3CCC(=O)NC3=O)C4=O)cc2)cc1NC(=O)c1coc(-c2ccncc2)n1 (stereo not shown) [I-358] | – | C (<20% degradation) | C (<20% degradation) | C (<20% degradation)
5 | O=C1CCC(N2C(=O)c3ccc(CCCNC(=O)c4ccc(-n5cc(NC(=O)c6coc(-c7ccncc7)n6)c(C(F)F)n5)cc4)cc3C2=O)C(=O)N1 (stereo not shown) [I-260] | – | C (<20% degradation) | C (<20% degradation) | C (<20% degradation)
6 | NC(=O)[C@H](O)C[C@H]1CCc2sc3ncnc(O[C@H]4CC[C@H](N5CCN(CCOCCOCCNc6cccc7c6C(=O)N(C6CCC(=O)NC6=O)C7=O)CC5)CC4)c3c21 (stereo partly drawn) [I-91, (2R)-3-[(8R)-1-[4-[4-[2-[2-[2-[[2-(2,6-dioxo-3-piperidyl)-1,3-dioxo-isoindolin-4-yl]amino]ethoxy]ethoxy]ethyl]piperazin-1-yl]cyclohexoxy]-7,8-dihydro-6H-cyclopenta[4,5]thieno[1,2-c]pyrimidin-8-yl]-2-hydroxy-propanamide] | C (<20% degradation) | – | – | –
7 | CC[C@@H]1[C@H](F)C(=O)N[C@@H]1COc1nccc2cc(C(=O)NCCOCCOCCOCCOCCNc3cccc4c3C(=O)N(C3CCC(=O)NC3=O)C4=O)c(OC)cc12 (stereo partly shown) [I-78] | C (<20% degradation) | – | – | –
8 | O=C1CCC(N2C(=O)c3ccc(NCCc4cnnn4CCOCCOCCNCc4ccc(-n5cc(NC(=O)c6coc(-c7ccnc(NCC8CC8)c7)n6)c(C(F)F)n5)cc4)cc3C2=O)C(=O)N1 (stereo not shown) [I-343] | – | C (<20% degradation) | B (>20-50% degradation) | A (>50% degradation)
9 | O=C1CCC(N2C(=O)c3ccc(CCCOCCOCCNCc4ccc(-n5cc(NC(=O)c6coc(-c7ccnc(NCC8CC8)c7)n6)c(C(F)(F)F)n5)cc4)cc3C2=O)C(=O)N1 (stereo not shown) [I-187, 2-[2-(Cyclopropylmethylamino)-4-pyridyl]-N-[1-[4-[[2-[2-[3-[2-(2,6-dioxo-3-piperidyl)-1,3-dioxo-isoindolin-5-yl]propoxy]ethoxy]ethylamino]methyl]phenyl]-3-(trifluoromethyl)pyrazol-4-yl]oxazole-4-carboxamide] | B (>20-50% degradation) | – | – | –
10 | CN(CCCc1cccc2c1C(=O)N(C1CCC(=O)NC1=O)C2=O)Cc1ccc(-n2cc(NC(=O)c3coc(-c4ccncc4)n3)c(C(N)=O)n2)cc1 (stereo not shown) [I-356] | – | C (<20% degradation) | C (<20% degradation) | C (<20% degradation)
11 | NC(=O)c1nn(-c2ccc(CNCC3CCCCN3CCOCCNc3cccc4c3C(=O)N(C3CCC(=O)NC3=O)C4=O)cc2)cc1NC(=O)c1coc(-c2ccnc(NCC(F)(F)F)c2)n1 (stereo not shown) [I-306] | – | C (<20% degradation) | B (>20-50% degradation) | B (>20-50% degradation)
12 | CC(C)(OCCNCCOCCNc1cccc2c1C(=O)N(C1CCC(=O)NC1=O)C2=O)C(F)CNC(=O)c1cnc(-n2ncc3cc(C#N)cnc32)cc1NC1CC1 (stereo not shown) [I-129] | C (<20% degradation) | – | – | –
13 | O=C1CCC(N2C(=O)c3cccc(NCCOCCN4CCO[C@@H](CNC(=O)c5ccc(-n6cc(NC(=O)c7coc(-c8ccnc(NCC9CC9)c8)n7)c(C(F)F)n6)cc5)C4)c3C2=O)C(=O)N1 (stereo partly shown) [I-247] | – | B (>20-50% degradation) | A (>50% degradation) | A (>50% degradation)
14 | NC(=O)c1nn(CCNCCOCCOCCNc2cccc3c2C(=O)N(C2CCC(=O)NC2=O)C3=O)cc1NC(=O)c1coc(-c2ccnc(NCC3CC3)c2)n1 (stereo not shown) [I-326] | – | B (>20-50% degradation) | C (<20% degradation) | C (<20% degradation)
15 | O=C1CCC(N2C(=O)c3cccc(NCCNCCOCCNC(=O)c4ccc(-n5cc(NC(=O)c6coc(-c7ccnc(NCC8CC8)c7)n6)c(C(F)(F)F)n5)cc4)c3C2=O)C(=O)N1 (stereo not shown) [I-222] | – | A (>50% degradation) | A (>50% degradation) | A (>50% degradation)
16 | NC(=O)c1nn(CCCCCCOCCOCCNc2cccc3c2C(=O)N(C2CCC(=O)NC2=O)C3=O)cc1NC(=O)c1coc(-c2ccnc(NCC3CC3)c2)n1 (stereo not shown) [I-435, N-[3-carbamoyl-1-[6-[2-[2-[[2-(2,6-dioxo-3-piperidyl)-1,3-dioxo-isoindolin-4-yl]amino]ethoxy]ethoxy]hexyl]pyrazol-4-yl]-2-[2-(cyclopropylmethylamino)-4-pyridyl]oxazole-4-carboxamide] | – | C (<20% degradation) | C (<20% degradation) | C (<20% degradation)
17 | CN(CCOCCOCCOCCOCCNc1cccc2c1C(=O)N(C1CCC(=O)NC1=O)C2=O)C(=O)[C@H]1C[C@H](NC(=O)c2cnc(-n3ncc4cc(C#N)cnc43)cc2NC2CC2)C1 (stereo partly shown) [I-39] | C (<20% degradation) | – | – | –
18 | O=C1CCC(N2C(=O)c3cccc(CCCOCCOCCNC(=O)c4ccc(-n5cc(NC(=O)c6coc(-c7ccnc(NCC8CC8)c7)n6)c(C(F)F)n5)cc4)c3C2=O)C(=O)N1 (stereo not shown) [I-244] | – | C (<20% degradation) | B (>20-50% degradation) | B (>20-50% degradation)
19 | O=C1CCC(N2C(=O)c3cccc(NCCOCCOCCOCCOCCn4cc(NC(=O)c5coc(-c6ccnc(NCC7CC7)c6)n5)c(C(F)F)n4)c3C2=O)C(=O)N1 (stereo not shown) [I-254] | – | C (<20% degradation) | C (<20% degradation) | B (>20-50% degradation)
20 | NC(=O)c1nn(-c2ccc(C(=O)NCCOCCOCCOCCCc3cccc4c3CN(C3CCC(=O)NC3=O)C4=O)cc2)cc1NC(=O)c1coc(-c2ccnc(NCC3CC3)c2)n1 (stereo not shown) [I-238] | – | C (<20% degradation) | B (>20-50% degradation) | A (>50% degradation)

Reference: patent US10874743B2, “IRAK degraders and uses thereof” (Kymera Therapeutics, Inc., priority 2017, dated 2020)
